Tests used:
[1] = test system: Erysiphe graminis f sp. tritici; assay: Test J: wheat powdery mildew, preventive spray on wheat seedlings, visual disease rating; conditions: for Test J disease control rating / Test J rating (% disease control): wheat powdery mildew, 100 = 100% disease control; for Test J disease control rating: sprayed the day before inoculation, 0 = no disease control relative to controls
Botrytis cinerea = assay: Test B: tomato Botrytis, preventive spray on tomato seedlings, visual disease rating; conditions: for Test B disease control rating / Test B rating (% disease control): tomato Botrytis, 100 = 100% disease control; for Test B disease control rating: 0 = no disease control relative to controls
Alternaria solani = assay: Test C: tomato early blight, preventive spray on tomato seedlings, visual disease rating; conditions: for Test C disease control rating / Test C rating (% disease control): tomato early blight, 100 = 100% disease control; for Test C disease control rating: 0 = no disease control relative to controls
From the text: General protocol for preparing test suspensions for Tests A-J: the test compounds were first dissolved in acetone in an amount equal to 3% of the final volume and then suspended at the desired concentration (in ppm) in acetone and purified water (50/50 mix by volume) containing 250 ppm of the surfactant Trem® 014 (polyhydric alcohol esters). The resulting test suspensions were then used in Tests A-J. Spraying a 200 ppm test suspension to the point of run-off on the test plants was the equivalent of a rate of 500 g/ha. Unless otherwise indicated, the rating values indicate a 200 ppm test suspension was used. (An asterisk “*” next to the rating value indicates a 40 ppm test suspension was used.)
The test suspension was sprayed to the point of run-off on tomato seedlings. The following day the seedlings were inoculated with a spore suspension of Alternaria solani (the causal agent of tomato early blight) and incubated in a saturated atmosphere at 27° C. for 48 h, and then moved to a growth chamber at 20° C. for 5 days, after which time visual disease ratings were made.

[2] = test system: Puccinia recondita f. sp. tritici; assay: Test H: wheat leaf rust, curative spray on inoculated wheat seedlings, visual disease rating; conditions: for Test H disease control rating / Test H rating (% disease control): wheat leaf rust, 100 = 100% disease control; for Test H disease control rating: sprayed after inoculation, 0 = no disease control relative to controls
Septoria nodorum = assay: Test F: Septoria glume blotch, preventive spray on wheat seedlings, visual disease rating; conditions: for Test F disease control rating / Test F rating (% disease control): 100 = 100% disease control; for Test F disease control rating: 0 = no disease control relative to controls
Septoria tritici = assay: Test G: wheat leaf blotch, preventive spray on wheat seedlings, visual disease rating; conditions: for Test G disease control rating / Test G rating (% disease control): wheat leaf blotch, 100 = 100% disease control; for Test G disease control rating: sprayed the day before inoculation, 0 = no disease control relative to controls
[3] = test system: Puccinia recondita f. sp. tritici; assay: Test I: wheat leaf rust, preventive spray on wheat seedlings, visual disease rating; conditions: for Test I disease control rating / Test I rating (% disease control): wheat leaf rust, 100 = 100% disease control; for Test I disease control rating: sprayed the day before inoculation, 0 = no disease control relative to controls
[4] = preventive spray, 0 = no control
[5] = Septoria glume blotch on wheat, preventive spray, 0 = no control
[6] = 0 = no control relative to controls
[7] = curative, 0 = no control relative to controls
[8] = Septoria glume blotch, 0 = no control relative to controls
[9] = preventive, 0 = no control relative to controls

SMILES	Test J rating (% disease control) [1, 4] [%]	Test B rating (% disease control) (Botrytis cinerea; [4]) [%]	Test C rating (% disease control) (Alternaria solani; [4]) [%]	Test H rating (% disease control) ([2]; curative spray, 0 = no control) [%]	Test F rating (% disease control) (Septoria nodorum; [5]) [%]	Test G rating (% disease control) (Septoria tritici; [4]) [%]	Test I rating (% disease control) [3, 4] [%]	Test J rating (% disease control) [1, 6] [%]	Test B rating (% disease control) (Botrytis cinerea; [6]) [%]	Test C rating (% disease control) (Alternaria solani; [6]) [%]	Test H rating (% disease control) [2, 7] [%]	Test F rating (% disease control) (Septoria nodorum; [8]) [%]	Test G rating (% disease control) (Septoria tritici; [6]) [%]	Test I rating (% disease control) [3, 9] [%]	also measured
Cc1nn(C)c(Nc2ccc(F)cc2Br)c1-c1c(Cl)cccc1Cl [compound 340]															Test J disease control rating [1]: 100%; Test B disease control rating (Botrytis cinerea): 99%; Test C disease control rating (Alternaria solani): 0%; Test H disease control rating [2]: 0%; Test F disease control rating (Septoria nodorum; Septoria glume blotch on wheat): 0%; Test G disease control rating (Septoria tritici): 100%; Test I disease control rating [3]: 91%
Cc1nn(C)c(Oc2cc(F)c(C#N)cc2F)c1-c1c(F)cc(F)cc1F [compound 99]	100	100	99	40	100	99	100								
Cc1nn(C)c(Nc2ccc(Cl)cc2)c1-c1ccc(F)cc1F [compound 195]								97	100	97	0	60	100	98	
Cc1nn(C)c(Oc2c(F)cc(C#N)cc2F)c1-c1ccccc1Cl [compound 271]								98	100	99	0	99	100	99	
Cc1nn(C)c(Oc2cc(C#N)c(C#N)cc2Cl)c1-c1ccc(F)cc1Cl [compound 150]								50	19	0	0	60	7	74	
Cc1nn(C)c(Oc2ccc([N+](=O)[O-])cc2Cl)c1-c1c(F)cc(F)cc1F [compound 32]	97	99	0	0	0	96	99								
Cc1nn(C)c(Nc2c(F)cc(C#N)cc2F)c1-c1ccc(F)cc1Cl [Compound 91, 4-[[4-(2-chloro-4-fluorophenyl)-1,3-dimethyl-1H-pyrazol-5-yl]amino]-3,5-difluorobenzonitrile]															pest or weed control at 200 µg/mL ([1]; Blumeria graminis, in Triticum aestivum, 192 h, read-out: Test J rating (% disease control)): 100%; pest or weed control at 200 µg/mL (Botrytis cinerea; Botrytis cinerea, in Solanum lycopersicum, 120 h, read-out: Test B rating (% disease control)): 100%; pest or weed control at 200 µg/mL (Alternaria solani; Alternaria solani, in Solanum lycopersicum, 168 h, read-out: Test C rating (% disease control)): 99%; pest or weed control at 200 µg/mL ([2]; 144 h, read-out: Test H rating (% disease control)): 0%; pest or weed control at 200 µg/mL (Septoria nodorum; Parastagonospora nodorum, in Triticum aestivum, 192 h, read-out: Test F rating (% disease control)): 95%; pest or weed control at 200 µg/mL (Septoria tritici; Zymoseptoria tritici, in Triticum aestivum, 504 h, read-out: Test G rating (% disease control)): 99%; pest or weed control at 200 µg/mL ([3]; 192 h, read-out: Test I rating (% disease control)): 100%
Cc1nn(C)c(Nc2ccc(F)cc2)c1-c1ccccc1F [compound 184]								98	97	0	0	0	99	82	
COc1ccc(-c2c(C)nn(C)c2Nc2ccc(F)cc2F)c(Cl)c1 [compound 160]								100	98	99	8	0	99	100	
COc1ccc(Nc2c(-c3c(Cl)cccc3Cl)c(C)nn2C)cc1 [compound 333]															Test J disease control rating [1]: 0%; Test B disease control rating (Botrytis cinerea): 100%; Test C disease control rating (Alternaria solani): 0%; Test H disease control rating [2]: 9%; Test F disease control rating (Septoria nodorum; Septoria glume blotch on wheat): 0%; Test G disease control rating (Septoria tritici): 100%; Test I disease control rating [3]: 74%
Cc1nn(C)c(Nc2ccc(F)cc2F)c1-c1c(F)cc(OS(=O)(=O)C(F)(F)F)cc1F [compound 105]	72	23	0	9	0	73	0								
Cc1cc(F)ccc1-c1c(C)nn(C)c1Oc1c(F)cc(C#N)cc1F [compound 97]	99	100	99	0	95	100	99								
COc1cc(F)c(-c2c(C)nn(C)c2Oc2ccc(Br)c(C#N)c2)c(F)c1 [compound 258]								90	41	9	0	0	89	68	
COc1ccc(-c2c(C)nn(C)c2Nc2c(F)cccc2F)c(Cl)c1 [compound 161]								98	98	100	95	0	100	100	
Cc1nn(C)c(Nc2ncc(F)cc2F)c1-c1ccccc1C(F)(F)F [compound 280]								87	99	0	8	0	96	18	
Cc1nn(C)c(Oc2cc(F)cc(F)c2F)c1-c1c(F)cc(F)cc1F [compound 167]								0	75	0	0	0	0	0	
Cc1nn(C)c(Oc2ccc(Cl)c(F)c2)c1-c1c(F)cc(F)cc1F [compound 129]	0	99	0	0	0	96	0								
CCOC(=O)Cn1nc(C)c(-c2c(F)cc(F)cc2F)c1Oc1c(F)cc([N+](=O)[O-])cc1F [compound 65]	0	0	0	0	0	1	58								
Cc1nn(C)c(Oc2ccc(Br)c(F)c2)c1-c1c(F)cc(F)cc1F [compound 130]	0	97	0	0	0	99	19								
Cc1nn(C)c(Nc2ncc(F)cc2F)c1-c1c(F)cccc1C(F)(F)F [compound 264]								98	100	98	0	0	92	99	
